In patent US20200172483A1, “HETEROCYCLIC SMALL MOLECULE MODULATORS OF HUMAN STING” (Curadev Pharma Limited, priority 2017, published 2020) one finds EC50 data, which are given here for 16 molecules.

The target in one assay is T1, WT/R232 STING protein (Homo sapiens, UniProt Q86WV6, H232R).
T1 construct: host or cells: HEK293T
Briefly: Luciferase reporter assay in HEK293T-hSTING-Luciferase cells (R232). To be noted: 20 hr stimulation, EC50 range. It is filed as cell-based. In short, it runs like this: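 Clonal HEK293T cells stably expressing human STING R232 plus an ISRE/ISG54-driven secreted luciferase reporter, stimulated with compounds for 20 hr. Luciferase in supernatant read by luminescence; activity given as fold-induction over baseline.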

In the next assay the target is T2, hSTING (H232) (Homo sapiens, UniProt Q86WV6).
T2 construct: host or cells: HEK293T
T2 sequence (Q86WV6 whole entry): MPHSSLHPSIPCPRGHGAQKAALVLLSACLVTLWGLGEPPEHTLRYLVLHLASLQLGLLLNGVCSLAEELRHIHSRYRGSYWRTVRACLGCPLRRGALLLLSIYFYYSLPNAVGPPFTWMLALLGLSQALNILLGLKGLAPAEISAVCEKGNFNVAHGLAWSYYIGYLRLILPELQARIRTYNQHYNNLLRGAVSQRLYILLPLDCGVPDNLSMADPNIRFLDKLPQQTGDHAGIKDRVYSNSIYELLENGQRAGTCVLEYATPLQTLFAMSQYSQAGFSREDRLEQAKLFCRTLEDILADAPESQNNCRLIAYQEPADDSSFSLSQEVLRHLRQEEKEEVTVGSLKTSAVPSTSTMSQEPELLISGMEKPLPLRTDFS
In words: Luciferase reporter assay in HEK293T-hSTING-Luciferase cells (H232/REF polymorph). Type of assay: cell-based. The following applies: EC50 range. An excerpt: (§1) • a) Stable STING expressing cells—Stable HEK293T STING-expressing cell lines were generated using plasmids purchased from Invivogen, CA, USA, that contain STING cDNA cloned into the pUNO-1 vector under hEF1-HTLV promoter and containing the Blasticidin selection cassette. The plasmids hSTING (R232), hSTING (H232), hSTING (HAQ) were directly procured from Invivogen while hSTING (AQ) and hSTING (Q) were derived from hSTING (HAQ) and hSTING (R232) plasmids respectively by using a PCR based site directed mutagenesis method. These vectors were individually transfected into HEK293T cells using Lipofectamine (Invitrogen) and transfected cells were selected under Blasticidin selection. These transfected cells were further subjected to clonal selection using the limiting dilution method to obtain clonally pure populations of HEK cells transfected with each of the above mentioned human STING variants. Only those clones were selected in which ligand independent activation of STING was minimal. • b) Stable Luciferase reporter gene expressing cells—Stable HEK293T Luciferase reporter gene expressing cell lines were generated using pCDNA4 plasmids under an IRF-inducible promoter. This promoter is comprised of five tandem interferon-stimulated response elements (ISRE) fused to an ISG54 minimal promoter. This vector was transfected into HEK293T cells using Lipofectamine (Invitrogen) and transfected cells were selected under Zeocin selection. These transfected cells were further subjected to clonal selection using the limiting dilution method to obtain clonally pure populations of HEK cells transfected the Luciferase reporter construct. Only those clones were selected in which ligand independent induction of luciferase was minimal.
(§2) 5×10^5 clonally selected HEK293T-hSTING-Luciferase cells were seeded in 384-well plates in growth medium and stimulated with novel compounds. After 20 hr of stimulation supernatant were removed and secretary reporter gene activity were measured using the Quanti-Luc detection system (Invivogen) on a Spectramax i3X luminometer.
(§3) The 5 major polymorphisms of human STING are shown in FIG. 1, with their prevalence in human populations indicated.

The target of the next assay is T3, hSTING (HAQ) (Homo sapiens, UniProt Q86WV6, G230A/H232R/R293Q/R71H).
T3 construct: host or cells: HEK293T
T3 sequence (Q86WV6 whole entry R71H/G230A/H232R/R293Q): as the sequence (Q86WV6 whole entry) above, with R71H, G230A, H232R, R293Q counted along it
In words: Luciferase reporter assay in HEK293T-hSTING-Luciferase cells (HAQ polymorph). It is filed as cell-based. The following applies: EC50 range.
Description: as §1, §2, §3
A general note: In a reporter assay the amount or activity of a reporter protein is the signal.

Another assay relates to IRF pathway. Briefly: Reporter gene expression assay for IRF axis in THP1-Dual cells (secreted Lucia luciferase). Type of assay: cell-based, human. To be noted: 20 hr stimulation, QUANTI-Luc, EC50 range, read-out: THP-IRF activity. On the procedure:
(§4) THP1-Dual™ cells (Invivogen) were derived from the human THP-1 monocyte cell line by stable integration of two inducible reporter constructs. As a result, THP1-Dual™ cells allow the simultaneous study of the NF-κB pathway, by monitoring the activity of secreted SEAP, and the IRF pathway, by assessing the activity of a secreted luciferase (Lucia). […] THP1-Dual™ cells were seeded in 384-well plates in growth medium and stimulated with novel compounds. After 20 hr of stimulation supernatant were removed and reporter proteins were readily measured in the cell culture supernatant using QUANTI-Blue™ (Invivogen), a SEAP detection reagent, and QUANTI-Luc™ (Invivogen), a luciferase detection reagent on a Spectramax i3X luminometer. EC50 value ranges for exemplary compounds tested in the above assay are given.

The subject of another assay is NF-κB pathway. In words: Reporter gene expression assay for NFκB axis in THP1-Dual cells (secreted SEAP). Type of assay: cell-based, human. To be noted: 20 hr stimulation, QUANTI-Blue SEAP, EC50 range, read-out: THP-NFKB activity. Here is the method: as §4

Like-named read-outs stand apart in the source and are kept apart here.

T1 sequence (Q86WV6 whole entry H232R): as the sequence (Q86WV6 whole entry) above, with H232R counted along it

On to `CC1(C)C(=O)N(Cc2cc(F)cc(F)c2)c2cc(C(=O)NCc3cc4ccccc4o3)ccc21` [Example 23, N-(benzofuran-2-ylmethyl)-1-(3,5-difluorobenzyl)-3,3-dimethyl-2-oxoindoline-6-carboxamide], for which the EC50 on WT/R232 STING protein was at most 1 µM; on hSTING (H232), 1 to 10 µM; on hSTING (HAQ), 1 to 10 µM; with IRF pathway (Homo sapiens, THP1-Dual, 20 h), above 10 µM; in the assay with NF-κB pathway (Homo sapiens, THP1-Dual, 20 h) it was 1 to 10 µM.

`CCC1(OC)C(=O)N(Cc2c(F)cccc2Cl)c2cc(C(=O)NCc3c(F)cc(F)cc3F)ccc21` (centres unmarked) [Example 161, 1-(2-chloro-6-fluorobenzyl)-3-ethyl-3-methoxy-2-oxo-N-(2,4,6-trifluorobenzyl)indoline-6-carboxamide]: the EC50 was 1 to 10 µM on WT/R232 STING protein; 1 to 10 µM on hSTING (H232); 1 to 10 µM at hSTING (HAQ); above 10 µM in the assay with IRF pathway (Homo sapiens, THP1-Dual, 20 h); above 10 µM in the assay with NF-κB pathway (Homo sapiens, THP1-Dual, 20 h).

Turning to `CC1(C)C(=O)N(Cc2cccc(F)c2F)c2cc(C(=O)NCc3c(F)cc(F)cc3F)ccc21` [Example 33, 1-(2,3-difluorobenzyl)-3,3-dimethyl-2-oxo-N-(2,4,6-trifluorobenzyl)indoline-6-carboxamide], the EC50 on WT/R232 STING protein is at most 1 µM; on hSTING (H232) it was at most 1 µM; at hSTING (HAQ), at most 1 µM; in the assay on IRF pathway (Homo sapiens, THP1-Dual, 20 h) it was 1 to 10 µM; with NF-κB pathway (Homo sapiens, THP1-Dual, 20 h) it was 1 to 10 µM.

In the case of `Cc1nn(CCO)c(CN2C(=O)C(C)(C)c3ccc(C(=O)NCc4cc5cc(F)ccc5o4)cc32)c1F` [Example 119, 1-((4-fluoro-1-(2-hydroxyethyl)-3-methyl-1H-pyrazol-5-yl)methyl)-N-((5-fluorobenzofuran-2-yl)methyl)-3,3-dimethyl-2-oxoindoline-6-carboxamide], the EC50 on WT/R232 STING protein is at most 1 µM; at hSTING (H232) it was 1 to 10 µM; on hSTING (HAQ) it was 1 to 10 µM; with IRF pathway (Homo sapiens, THP1-Dual, 20 h), 1 to 10 µM; with NF-κB pathway (Homo sapiens, THP1-Dual, 20 h), 1 to 10 µM.

Regarding `CC1(C)C(=O)N(Cc2c(F)cccc2Cl)c2cc(C(=O)NCc3ccccc3F)ccc21` [Example 72, 1-(2-chloro-6-fluorobenzyl)-N-(2-fluorobenzyl)-3,3-dimethyl-2-oxoindoline-6-carboxamide], the EC50 is at most 1 µM on WT/R232 STING protein; 1 to 10 µM on hSTING (H232); 1 to 10 µM on hSTING (HAQ); above 10 µM in the assay with IRF pathway (Homo sapiens, THP1-Dual, 20 h); 1 to 10 µM in the assay with NF-κB pathway (Homo sapiens, THP1-Dual, 20 h).

For `CC1(Cl)C(=O)N(Cc2cc(F)cc(F)c2)c2cc(C(=O)NCc3c(F)cc(F)cc3F)ccc21` (centres unmarked) [Example 148], the EC50 was 1 to 10 µM on WT/R232 STING protein; 1 to 10 µM at hSTING (H232); 1 to 10 µM on hSTING (HAQ); above 10 µM in the assay with IRF pathway; above 10 µM with NF-κB pathway.

As to `CC1(C)C(=O)N(Cc2c(F)cccc2Cl)c2cc(C(=O)NCc3nc4ccccc4o3)ccc21` [Example 30, N-(benzo[d]oxazol-2-ylmethyl)-1-(2-chloro-6-fluorobenzyl)-3,3-dimethyl-2-oxoindoline-6-carboxamide], the EC50 on WT/R232 STING protein is 1 to 10 µM; on hSTING (H232), 1 to 10 µM; at hSTING (HAQ), 1 to 10 µM; with IRF pathway (Homo sapiens, THP1-Dual, 20 h) it was above 10 µM; with NF-κB pathway (Homo sapiens, THP1-Dual, 20 h), 1 to 10 µM.

Turning to `Cc1cc(CN2C(=O)C(C)(C)c3ccc(C(=O)NCc4c(F)cc(F)cc4F)cc32)nn1C` [Example 81, 1-((1,5-dimethyl-1H-pyrazol-3-yl)methyl)-3,3-dimethyl-2-oxo-N-(2,4,6-trifluorobenzyl)indoline-6-carboxamide], the EC50 on WT/R232 STING protein was 1 to 10 µM; at hSTING (H232), 1 to 10 µM; on hSTING (HAQ), 1 to 10 µM; with IRF pathway (Homo sapiens, THP1-Dual, 20 h) it was 1 to 10 µM; in the assay with NF-κB pathway (Homo sapiens, THP1-Dual, 20 h), 1 to 10 µM.

With `Cc1ccc(CNC(=O)c2ccc3c(n2)N(Cc2cc(F)cc(F)c2)C(=O)C3(C)C)o1` [Example 188, 1-(3,5-difluorobenzyl)-3,3-dimethyl-N-((5-methylfuran-2-yl)methyl)-2-oxo-2,3-dihydro-1H-pyrrolo[2,3-b]pyridine-6-carboxamide], the EC50 on WT/R232 STING protein was 1 to 10 µM; on hSTING (H232), 1 to 10 µM; at hSTING (HAQ), 1 to 10 µM; in the assay on IRF pathway (Homo sapiens, THP1-Dual, 20 h) it was above 10 µM; with NF-κB pathway (Homo sapiens, THP1-Dual, 20 h), above 10 µM.

Take `COCCn1nc(C)c(F)c1CN1C(=O)C(C)(C)c2ccc(C(=O)NCc3cc4cc(F)ccc4o3)cc21` [Example 118, 1-((4-fluoro-1-(2-methoxyethyl)-3-methyl-1H-pyrazol-5-yl)methyl)-N-((5-fluorobenzofuran-2-yl)methyl)-3,3-dimethyl-2-oxoindoline-6-carboxamide]: the EC50 at WT/R232 STING protein was at most 1 µM; on hSTING (H232), 1 to 10 µM; at hSTING (HAQ), 1 to 10 µM; in the assay on IRF pathway (Homo sapiens, THP1-Dual, 20 h) it was above 10 µM; in the assay with NF-κB pathway (Homo sapiens, THP1-Dual, 20 h) it was above 10 µM.

`Cc1ccc(CNC(=O)c2ccc3c(c2)N(Cc2c(F)cccc2Cl)C(=O)C3(C)C)o1` [Example 13, 1-(2-chloro-6-fluorobenzyl)-3,3-dimethyl-N-((5-methylfuran-2-yl)methyl)-2-oxoindoline-6-carboxamide]: the EC50 was at most 1 µM at WT/R232 STING protein; 1 to 10 µM at hSTING (H232); 1 to 10 µM on hSTING (HAQ); above 10 µM in the assay on IRF pathway (Homo sapiens, THP1-Dual, 20 h); above 10 µM in the assay on NF-κB pathway (Homo sapiens, THP1-Dual, 20 h).

As for `CC1(C)C(=O)N(Cc2ccccc2F)c2cc(C(=O)NCc3c(F)cc(F)cc3F)ccc21` [Example 6, 1-(2-fluorobenzyl)-3,3-dimethyl-2-oxo-N-(2,4,6-trifluorobenzyl)indoline-6-carboxamide], the EC50 on WT/R232 STING protein was at most 1 µM; on hSTING (H232) it was at most 1 µM; at hSTING (HAQ), at most 1 µM; with IRF pathway (Homo sapiens, THP1-Dual, 20 h) it was 1 to 10 µM; with NF-κB pathway (Homo sapiens, THP1-Dual, 20 h), 1 to 10 µM.

Turning to `CC1(C)C(=O)N(Cc2c(F)cccc2Cl)c2cc(C(=O)NCc3ccc(F)cc3)ccc21` [Example 25, 1-(2-chloro-6-fluorobenzyl)-N-(4-fluorobenzyl)-3,3-dimethyl-2-oxoindoline-6-carboxamide], the EC50 was at most 1 µM on WT/R232 STING protein; 1 to 10 µM at hSTING (H232); 1 to 10 µM on hSTING (HAQ); above 10 µM with IRF pathway (Homo sapiens, THP1-Dual, 20 h); 1 to 10 µM with NF-κB pathway (Homo sapiens, THP1-Dual, 20 h).

Regarding `CC1(C)C(=O)N(Cc2cc(F)cc(F)c2)c2cc(C(=O)NCc3c(F)cc(F)cc3F)ccc21` [Example 5, 1-(3,5-difluorobenzyl)-3,3-dimethyl-2-oxo-N-(2,4,6-trifluorobenzyl)indoline-6-carboxamide], the EC50 was at most 1 µM on WT/R232 STING protein; at most 1 µM on hSTING (H232); at most 1 µM at hSTING (HAQ); 1 to 10 µM in the assay on IRF pathway (Homo sapiens, THP1-Dual, 20 h); 1 to 10 µM in the assay with NF-κB pathway (Homo sapiens, THP1-Dual, 20 h).

In the case of `Cc1cc(CN2C(=O)C(C)(C)c3ccc(C(=O)NCc4c(F)cc(F)cc4F)cc32)n(C)n1` [Example 82, 1-((1,3-dimethyl-1H-pyrazol-5-yl)methyl)-3,3-dimethyl-2-oxo-N-(2,4,6-trifluorobenzyl)indoline-6-carboxamide], the EC50 is at most 1 µM on WT/R232 STING protein; 1 to 10 µM on hSTING (H232); 1 to 10 µM at hSTING (HAQ); 1 to 10 µM with IRF pathway (Homo sapiens, THP1-Dual, 20 h); 1 to 10 µM in the assay on NF-κB pathway (Homo sapiens, THP1-Dual, 20 h).

`CC1(C)C(=O)N(Cc2c(F)cccc2Cl)c2cc(C(=O)NCc3c(F)cc(F)cc3F)ccc21` [Example 2, 1-(2-chloro-6-fluorobenzyl)-3,3-dimethyl-2-oxo-N-(2,4,6-trifluorobenzyl)indoline-6-carboxamide]: the EC50 at WT/R232 STING protein was at most 1 µM; on hSTING (H232), at most 1 µM; on hSTING (HAQ), at most 1 µM; in the assay with IRF pathway (Homo sapiens, THP1-Dual, 20 h) it was 1 to 10 µM; in the assay with NF-κB pathway (Homo sapiens, THP1-Dual, 20 h), 1 to 10 µM.
